{"source": "patent US12201608B2", "about": "“Methods for treating Parkinson's disease by administering resiniferatoxin” (Sorrento Therapeutics, Inc., priority 2018, dated 2025)", "assay_type_in_all_cases": "in vivo, C57Bl/6J male mice", "key": {"[1]": {"system": "dopamine and its metabolite levels in the striatum, AAV-A53T mouse model of PD-like pathology", "experiment": "Dopamine and metabolites in ipsilateral and contralateral striatum by HPLC", "conditions": "for dopamine levels in striatum: vs AAV-A53T vehicle", "procedure": "(§1) For this study, a total of 110 male C57Bl/6J mice two months of age were infused with either AAV-A53T (90 mice) or AAV-Null (20 mice) into substantia nigra unilaterally to induce PD-like pathology or to serve as sham controls, respectively. Mice infused with AAV-Null (empty) vector (“sham-infused” mice) were used in order to control for the effect of the viral infusion. After 7 or 14 days of AAV-A53T mediated disease model induction, the mice were treated with RTX (0.04 μg or 0.125 μg) (5 μL volume, prepared from a 25 μg/ml RTX solution containing Polysorbate 80 at 0.03% w/v, dextrose at 0.05% w/v, Phosphate Buffer at 30 mM, and NaCl 0.54% w/v, pH 7.2, and diluted in saline as needed) by single intrathecal infusion at lumbar spinal cord area. One AAV-Null and AAV-A53T infused group per each time point were treated with vehicle instead of RTX.\nThe mice were then treated with RTX or vehicle by intrathecal infusion 7 or 14 days after AAV infusion. The mice were assigned to treatment groups as follows: • Group 1: 10 male mice sham-infused with AAV-null, and administered vehicle at D7. • Group 2: 15 male mice infused with AAV-A53T, and administered vehicle at D7. • Group 3: 15 male mice infused with AAV-A53T, and administered 0.04 μg of RTX at D7. • Group 4: 15 male mice infused with AAV-A53T, and administered 0.125 μg of RTX at D7. • Group 5: 10 male mice sham-infused with AAV-null, and administered vehicle at D14. • Group 6: 15 male mice infused with AAV-A53T, and administered vehicle at D14. • Group 7: 15 male mice infused with AAV-A53T, and administered 0.04 μg of RTX at D14. • Group 8: 15 male mice infused with AAV-A53T, and administered 0.125 μg of RTX at D14.\nBody weight of the animals was monitored two times per week. Fine motor kinematic analysis was performed 7 weeks after AAV infusion. 8 weeks post AAV infusion, the mice were euthanized and subjected to tissue sample collection. Dopamine and its metabolites were analyzed from ipsilateral and contralateral striata by high performance liquid chromatography (HPLC).\nIpsi- and contralateral striatum were collected in 1.5 mL Eppendorf tubes, snap-frozen on dry ice (i.e. left and right separately), weighed and stored at −80° C. for HPLC analysis of dopamine and its metabolites.\nDopamine (DA), 3,4-dihydroxyphenylacetic acid (DOPAC) and homovanillic acid (HVA) concentrations in mouse striatal tissue samples were determined by high performance liquid chromatography (HPLC) method with electrochemical detection. After thawing on ice, tissue samples were homogenized (1:10, w/v) in 0.1 M perchloric acid with MSE Soniprep 150 ultrasonic disintegrator (MSE Scientific Instruments, Crawley, UK). Tissue homogenates were centrifuged for 15 min at 15000 g at 4° C. Supernatants were filtered through polypropylene membrane (GHP Acrodisc 13 0.45 μm, Pall Corporation, Ann Arbor, MI, USA) and diluted (1:1) with 0.1 M perchloric acid. The samples were transferred into plastic vials and analyzed immediately.\nThe ESA HPLC system (ESA Inc., Chelmsford, MA, USA) consists of a 582 solvent delivery system, a DG-1210 vacuum degasser, an 542 autosampler, a 880 thermostatted chamber, an eight-channel CoulArray® 5600 electrochemical array detector equipped with a two-channel 5014B microdialysis cell and a CoulArray® for Windows data acquisition module (version 1.00). The applied potentials are −175 mV (channel 1), +225 mV (channel 2), +350 mV (channel 3) and +450 mV (channel 4). DA and DOPAC are detected on channel 2 and HVA on channel 3. Injection volume is 10 μl.\nThe analytes were separated on a Zorbax SB-Aq reversed-phase column (2.1×100 mm, 3.5 μm, Agilent Technologies Inc., Little Falls, Wilmington, DE, USA) with a Zorbax SB-Aq precolumn (2.1×12.5 mm, 5 μm) in an isocratic run. The column was maintained at 35° C. The mobile phase was 100 mM monobasic sodium phosphate containing 4.75 mM citric acid monohydrate, 7 mM 1-octanesulfonic acid and 50 μM disodium EDTA-acetonitrile mixture (98:2, v/v). […]"}, "[2]": {"system": "AAV-A53T mouse model of Parkinson's Disease-like (PD) pathology", "experiment": "Fine motor gait analysis accounting for left-right asymmetry (D7 data reevaluated)", "conditions": "for maximum left-right difference of hip angle: vs AAV-A53T Vehicle", "procedure": "D7 fine motor gait analysis data from the study described above was reevaluated to determine how left-right asymmetry is manifested on kinematic parameters instead of assessing changes which occur bilaterally and that are captured in the “normal” overall gait score.\nTypically, both the left and right sides of an animal are assessed for test parameters and the overall score and discriminant vector is based on the average of both the left and right-side values for a particular parameter. For example, the maximum hip angle is determined by the average of the left and right-side angle and it is similar in both AAV-Null Vehicle and AAV-A53T Vehicle groups. However, as shown in FIGS. 8A-8C when the left and right side measurements of the maximum hip angle were analyzed separately, the hip angle max of AAV-A53T Vehicle treated mice is smaller on the left side (FIG. 8A) than on the right side (FIG. 8B) when compared to AAV-Null mice.\nFine motor gait analysis was performed by creating a discriminant vector using the transformed data set, where left-right difference is used instead of the average of left and right."}, "[3]": {"experiment": "Body weight monitoring in AAV-A53T / AAV-Null infused mice", "conditions": "single intrathecal 0.04 μg or 0.125 μg, 7 or 14 days after AAV-A53T or AAV-Null infusion, 8 week study, two-way ANOVA", "procedure": "as §1\nThe mice were then treated with RTX or vehicle by intrathecal infusion 7 or 14 days after AAV infusion. […]\nBody weight of the animals was monitored two times per week. […] Dopamine and its metabolites were analyzed from ipsilateral and contralateral striata by high performance liquid chromatography (HPLC).\nBody weight of the mice was measured twice-per week (on Mondays and Fridays) for the whole study duration."}, "[4]": {"conditions": "high dose, 7 days after AAV-A53T infusion, statistically non-significant (one-way ANOVA)"}, "[5]": {"conditions": "both RTX groups, vs AAV-A53T Vehicle D7"}}, "note": "Entries after “also recorded” stand apart in the source; their conditions may differ."}
{"smiles": "C=C(C)[C@]12C[C@@H](C)[C@@]34O[C@](Cc5ccccc5)(O[C@@H]1[C@@H]3C=C(COC(=O)Cc1ccc(O)c(OC)c1)C[C@]1(O)C(=O)C(C)=C[C@@H]41)O2", "note": "[RTX, Resiniferatoxin]", "values": [{"measurement": "dopamine and its metabolites levels, treatment effect", "setting": "[1]; AAV-A53T vehicle groups vs corresponding RTX groups, striata 8 weeks after model induction", "result": "no significant effects of RTX treatment; also recorded: no significant treatment effect"}, {"measurement": "dopamine turnover ((DOPAC + HVA) / dopamine)", "setting": "[1]; both doses, 7 and 14 days after AAV-A53T infusion, statistically non-significant (Kruskal-Wallis test)", "result": "minor trend towards even higher turnover rates"}, {"measurement": "DOPAC levels in striatum", "setting": "[1]; groups treated at day 14", "result": "non-significant trend of lower DOPAC levels"}, {"measurement": "HVA levels in striatum", "setting": "[1]; groups treated at day 14", "result": "non-significant trend of lower HVA levels"}, {"measurement": "dopamine levels in striatum", "setting": "[1]; groups treated at day 14", "result": "non-significant trend of lower dopamine levels"}, {"measurement": "DOPAC levels in striatum", "setting": "[1]; [4]", "result": "minor trend towards higher DOPAC levels"}, {"measurement": "HVA level in striatum", "setting": "[1]; [4]", "result": "minor trend towards higher concentration"}, {"measurement": "dopamine levels in striatum", "setting": "[1]; [4]", "result": "minor trend towards higher dopamine levels"}, {"measurement": "maximum left-right difference of hip angle", "setting": "[2]; AAV-A53T and 0.05 μg RTX (n=14)", "result": "reduction in the maximum difference"}, {"measurement": "maximum left-right difference of hip angle", "setting": "[2]; AAV-A53T and 0.124 μg RTX (n=14)", "result": "reduction in the maximum difference"}, {"measurement": "hindlimb peak swing speed, left-right difference", "setting": "[2]; [5]", "result": "reduced"}, {"measurement": "hindlimb swing speed, left-right difference", "setting": "[2]; [5]", "result": "reduced"}, {"measurement": "left-right gait difference Discriminant Vector Score", "setting": "[2]; both RTX groups, vs AAV-A53T vehicle, p<0.05 unpaired t-test", "result": "significantly lower"}, {"measurement": "diagonal interlimb coordination, left-right difference", "setting": "[2]; low and high RTX dose groups", "result": "less of a a diagonal interlimb coordination difference"}, {"measurement": "body weight", "setting": "[3]", "result": "steady weight gain was observed similarly in vehicle and RTX treated groups; also recorded: No significant differences between the groups"}, {"measurement": "body weight", "setting": "[3]; listed as resiniferatoxin", "result": "No significant differences between the groups"}]}
